Measurements: ChEMBL document CHEMBL5131388, “Discovery of novel brain-penetrant GluN2B NMDAR antagonists via pharmacophore-merging strategy as anti-stroke therapeutic agents” (Eur J Med Chem, 2022)

Key:
[1] = Neuroprotective activity against NMDA-induced neurotoxicity in Sprague-Dawley rat hippocampal neurons assessed as increase in cell viability at 0.1 uM incubated for 18 hrs followed by NMDA addition and measured after 0.5 hrs by MTT assay; assay type: functional, Hippocampal neurone; details: time 18.5 hrs
[2] = Neuroprotective activity against NMDA-induced neurotoxicity in Sprague-Dawley rat hippocampal neurons assessed as increase in cell viability at 1 uM incubated for 18 hrs followed by NMDA addition and measured after 0.5 hrs by MTT assay; assay type: functional, Hippocampal neurone; details: time 18.5 hrs
[3] = Neuroprotective activity against NMDA-induced neurotoxicity in Sprague-Dawley rat hippocampal neurons assessed as increase in cell viability at 10 uM incubated for 18 hrs followed by NMDA addition and measured after 0.5 hrs by MTT assay; assay type: functional, Hippocampal neurone; details: time 18.5 hrs
[4] = target: Glutamate NMDA receptor; GRIN1/GRIN2A (Homo sapiens) (UniProt Q05586+Q12879); test: Antagonist activity at GluN1/GluN2A NMDA receptor (unknown origin) transfected in HEK293 cells assessed as inhibition of glycine induced current response at 10 uM in presence of L-glutamate by patch-clamp method; assay type: cell-based
[5] = target: Ionotropic glutamate receptor NMDA 1/2D (Homo sapiens) (UniProt Q05586+O15399); test: Antagonist activity at GluN1/GluN2D NMDA receptor (unknown origin) transfected in HEK293 cells assessed as inhibition of glycine induced current response at 10 uM in presence of L-glutamate by patch-clamp method; assay type: cell-based
[6] = target: Ionotropic glutamate receptor NMDA 1/2C (Homo sapiens) (UniProt Q05586+Q14957); test: Antagonist activity at GluN1/GluN2C NMDA receptor (unknown origin) transfected in HEK293 cells assessed as inhibition of glycine induced current response at 10 uM in presence of L-glutamate by patch-clamp method; assay type: cell-based
[7] = target: Glutamate NMDA receptor; GRIN1/GRIN2B (Homo sapiens) (UniProt Q05586+Q13224); test: Antagonist activity at GluN1/GluN2B NMDA receptor (unknown origin) transfected in HEK293 cells assessed as inhibition of glycine induced current response at 10 uM in presence of L-glutamate by patch-clamp method; assay type: cell-based; details: filed as antagonist
[8] = system: Rattus norvegicus; test: Neuroprotective activity in Sprague-Dawley rat model of middle cerebral artery occlusion-induced ischemia-reperfusion injury assessed as decrease in neurological score at 20 mg/kg, po measured 24 hrs post injury by TTC staining based histological analysis; assay type: functional
[9] = system: Rattus norvegicus; test: Neuroprotective activity in Sprague-Dawley rat model of middle cerebral artery occlusion-induced ischemia-reperfusion injury assessed as decrease in cerebral infarction rate at 20 mg/kg, po measured 24 hrs post injury by TTC staining based histological analysis; assay type: functional; design: scale not given: the % may be the effect or the level left
[10] = target: Glutamate NMDA receptor; test: Displacement of [3H] ifenprodil from Wistar rat glutamate NMDA receptor incubated for 2 hrs by scintillation counting method; assay type: protein-complex assay

| Structure (SMILES) | Activity [1] | Activity [2] | Activity [3] | further results |
| --- | --- | --- | --- | --- |
| O=C1OC(CCCN2CCN(Cc3cccc(Cl)c3)CC2)c2ccccc21 (stereo unspecified) | 49.69% | 55.95% | 62.96% | – |
| O=C1OC(CCN2CCc3sccc3C2)c2ccccc21 (stereo unspecified) | 45.88% | 58.81% | 66.05% | – |
| O=C1OC(CCCN2CCN(Cc3cccc([N+](=O)[O-])c3)CC2)c2ccccc21 (stereo unspecified) | 53.23% | 69.03% | 73.28% | – |
| O=C1OC(CCCN2CCN(Cc3ccc(C(F)(F)F)cc3)CC2)c2ccccc21 (single isomer, unassigned; enantiomer A) [listing 1 of 2 here] | – | – | – | inhibition [4]: 23.4%; inhibition [5]: 16.7%; inhibition [6]: 14.9%; inhibition [7]: 71.9% |
| O=C1OC(CCCN2CCN(Cc3ccncc3)CC2)c2ccccc21 (stereo unspecified) | 57.55% | 66.35% | 75.54% | – |
| CN(C)CCC1OC(=O)c2ccccc21 (stereo unspecified) | 56.09% | 71.66% | 73.56% | – |
| O=C1OC(CCCN2CCN(Cc3ccc(Br)cc3)CC2)c2ccccc21 (stereo unspecified) | 46.12% | 45.56% | 46.13% | – |
| O=C1OC(CCCN2CCN(Cc3cccnc3)CC2)c2ccccc21 (stereo unspecified) | 51.84% | 55.95% | 63.33% | – |
| O=C1OC(CCCN2CCN(Cc3ccc(C(F)(F)F)cc3)CC2)c2ccccc21 (single isomer, unassigned; enantiomer B) [listing 1 of 2 here] | – | – | – | Activity ([1]; 0.1 µM): 65.86%; Activity ([2]; 1 µM): 81.02%; Activity ([3]; 10 µM): 81.82% |
| CC(C(O)c1ccc(O)cc1)N1CCC(Cc2ccccc2)CC1 (stereo unspecified) [IFENPRODIL] | 65.93% | 76.98% | 85.83% | inhibition [4]: 13.1%; Activity [8]: 1.75; inhibition [5]: 18.1%; inhibition [6]: 28.8%; inhibition [7]: 135%; Activity [9]: 14.35% |
| O=C1OC(CCCN2CCN(Cc3ccccn3)CC2)c2ccccc21 (stereo unspecified) | 57.46% | 67.89% | 74.65% | – |
| O=C1OC(CCCN2CCC(CO)CC2)c2ccccc21 (stereo unspecified) | 60.19% | 74.86% | 78.14% | – |
| CCCCC1OC(=O)c2ccccc21 (stereo not drawn) [RAC-3-N-BUTYLPHTHALIDE] | 55.71% | 57.94% | 73.45% | Activity [8]: 2.13; Activity [9]: 18.81%; Ki [10]: 14.8 nM |
| Cc1ccc(CN2CCN(CCCC3OC(=O)c4ccccc43)CC2)cc1 (stereo unspecified) | 51.66% | 64.44% | 68.38% | – |
| O=C1OC(CCCN2CCN(Cc3ccc([N+](=O)[O-])cc3)CC2)c2ccccc21 (stereo unspecified) | 66.55% | 79.64% | 88.35% | Activity [8]: 1.75; Activity [9]: 14.53%; Ki [10]: 4.55 nM |
| O=C1OC(CCCN2CCN(Cc3ccc(Cl)cc3)CC2)c2ccccc21 (stereo unspecified) | 49.49% | 54.83% | 60.33% | – |
| O=C1OC(CCCN2CCN(Cc3ccc(F)cc3)CC2)c2ccccc21 (stereo unspecified) | 52.58% | 64.11% | 72.2% | – |
| O=C1OC(CCCN2CCN(Cc3ccc4ccccc4n3)CC2)c2ccccc21 (stereo unspecified) | 49.69% | 55.95% | 62.96% | – |

| Structure (SMILES) | Activity [1] | Activity [2] | Activity [3] | further results |
| --- | --- | --- | --- | --- |
| COc1ccc(CN2CCN(CCCC3OC(=O)c4ccccc43)CC2)cc1OC (stereo unspecified) | 46.58% | 47.16% | 48.44% | – |
| O=C1OC(CCCN2CCN(Cc3ccc(C(F)(F)F)cc3)CC2)c2ccccc21 (single isomer, unassigned; enantiomer A) [listing 2 of 2 here] | – | – | – | Activity ([1]; 0.1 µM): 62.81%; Activity ([2]; 1 µM): 71.91%; Activity ([3]; 10 µM): 81.02% |
| O=C1OC(CCCN2CCN(Cc3ccccc3)CC2)c2ccccc21 (stereo unspecified) | 67.64% | 79.85% | 81.91% | Ki [10]: 13.6 nM |
| O=C1OC(CCN2CCCC2)c2ccccc21 (stereo unspecified) | 57.21% | 66.34% | 70.66% | – |
| O=C1OC(CCCN2CCN(Cc3ccc(C(F)(F)F)cc3)CC2)c2ccccc21 (racemic) | – | – | – | inhibition [4]: 26.6%; inhibition [5]: 10.3%; inhibition [6]: 12%; inhibition [7]: 75.4% |
| O=C1OC(CCCN2CCOCC2)c2ccccc21 (stereo unspecified) | 57.15% | 65.19% | 76.22% | – |
| O=C1OC(CCCN2CCN(Cc3ccc(F)c(F)c3)CC2)c2ccccc21 (stereo unspecified) | 57.3% | 65.4% | 75.45% | – |
| Cc1cccc(CN2CCN(CCCC3OC(=O)c4ccccc43)CC2)c1 (stereo unspecified) | 53.08% | 61.15% | 67.43% | – |
| O=C1OC(CCCN2CCN(Cc3ccc(C(F)(F)F)cc3)CC2)c2ccccc21 (single isomer, unassigned; enantiomer B) [listing 2 of 2 here] | – | – | – | inhibition [4]: 25.9%; inhibition [5]: 20.3%; inhibition [6]: 16.2%; inhibition [7]: 81% |
| O=C1OC(CCCN2CCc3sccc3C2)c2ccccc21 (stereo unspecified) | 49.39% | 61.1% | 66.52% | – |
| N#Cc1ccc(CN2CCN(CCCC3OC(=O)c4ccccc43)CC2)cc1 (stereo unspecified) | 49.49% | 54.83% | 60.33% | – |
| O=C1OC(CCCN2CCCCC2)c2ccccc21 (stereo unspecified) | 63.96% | 70.2% | 77.85% | – |
| O=C1OC(CCCN2CCC(Cc3ccccc3)CC2)c2ccccc21 (stereo unspecified) | 49.13% | 78.13% | 79.12% | – |
| CS(=O)(=O)c1ccc(CN2CCN(CCCC3OC(=O)c4ccccc43)CC2)cc1 (stereo unspecified) | 50.17% | 55.51% | 61.02% | – |
| O=C1OC(CCCN2CCCC2)c2ccccc21 (stereo unspecified) | 56.53% | 65.3% | 73.16% | – |
| CN(C)CCCC1OC(=O)c2ccccc21 (stereo unspecified) | 48.37% | 77.37% | 78.18% | – |
| O=C1OC(CCCN2CCC(O)CC2)c2ccccc21 (stereo unspecified) | 58.83% | 67.72% | 77.13% | – |
